pEC50: −log10 of the molar value. Entries after “also recorded” stand apart in the source; their conditions may differ. Where two headings read alike, the source gives them in different places. Each block holds one compound with its values, some of them ahead of it.
Legend:
F508del-CFTR [1] = target: T1, F508del-CFTR (Homo sapiens, UniProt P13569, DEL508-508); experiment: Membrane potential optical (FLIPR) assay for F508del-CFTR modulators; type: cell-based; parameters: expressed in transfected cells; conditions: read-out: CFTRdF508 EC50
Description: Membrane Potential Optical Methods for Assaying Properties of F508del-CFIR Modulators
The assay utilizes fluorescent voltage sensing dyes to measure changes in membrane potential using a fluorescent plate reader (e.g., FLIPR III, Molecular Devices, Inc.) as a readout for increase in functional F508del in NIH 3T3 cells.
5A-A1. Identification of F508del-CTTR Modulators
To identify modulators of F508del, a fluorescence based HTS assay format was developed. This HTS assay utilizes fluorescent voltage sensing dyes to measure changes in membrane potential on the FLIPR III as a measurement for increase in gating (conductance) of F508del NIH 3T3 cells.
Bath Solution #1: (in mM) NaCl 160, KCl 4.5, CaCl2 2, MgCl2 1, HEPES 10, pH 7.4 with NaOH, Glucose 10.
Chloride-free bath solution: Chloride salts in Bath Solution #1 (above) are substituted with gluconate salts.
NIH3T3 mouse fibroblasts stably expressing F508del are used for optical measurements of membrane potential. The cells are maintained at 37° C. in 5% CO2 and 90% humidity in Dulbecco's modified Eagle's medium supplemented with 2 mM glutamine, 10% fetal bovine serum, 1×NEAR, β-ME, 1×pen/strep, and 25 mM HEPES in 175 cm^2 culture flasks, For all optical assays, the cells were seeded at 12,000 cells/well in 384-well matrigel-coated plates and cultured for 18-24 hrs at 37° C. for the potentiator assay. For the correction assays, the cells are cultured at 37° C. with and without compounds for 18-24 hours.

[2] = target: T2, Human Serum Albumin (HSA) (Homo sapiens, UniProt P02768); experiment: Chromatographic determination of Human Serum Albumin (HSA) binding; type: in vitro ADME; conditions: ChiralPak HSA column retention time converted to % HSA
T2 construct: purchased Sigma Aldrich 58469AST
Protocol: 5B. Chromatographic Determination of Human Serum Albumin (HSA) Assay
Chromatographic determination of Human Serum Albumin (HSA) values was performed on a UPLC-MS system using a ChiralPak® HSA column (p/n: 58469AST) from Sigma Aldrich. Mobile phase A consisted of 50 mM ammonium acetate buffer in water adjusted to pH=7.4, and mobile phase B was 2-propanol. The column compartment was kept at constant temperature of 30° C. Determination of retention time on the HSA column was performed by injecting […] of 0.5 mM of compound (in DMSO) using a linear gradient from 0%-30% B in 2.5 minutes, followed by a hold at 30%B for 2 minutes, and the final equilibration step from 30%-0% B in 1.5 minutes, for a total run time of 6 minutes. Flow rate was kept constant throughout the gradient and set to 1.8 mL/min. Compound retention time on the HSA column was converted to % HSA values according to a previously published protocol (Valko, et. al, 2003) correlating column retention times to standard plasma protein binding (PPB) values obtained from dialysis experiments. HSA data for certain compounds are summarized below in Table 8 below.
Valko, K., Nunhuck, S., Bevan, C., Abraham, M. H., Reynolds, D. P. Fast Gradient HPLC Method to Determine Compounds Binding to Human Serwn Albumin. Relationships with Octanol/Water and. Immobilized Artificial Membrane Lipophilicity. J. of Pharm. Sci. 2003, 92, 2236-2248.

Rat IV and PO PK studies = type: in vivo; conditions: male Sprague-Dawley rats, oral 3 mg/kg
Protocol: 5C. Experimental Protocol for Rat IV and PO PK Studies
The tested compound was administered to male Sprague-Dawley rats as a single nominal intravenous dose of 3.0 mg/kg as a solution in 10% NMP, 10% solutol, 15% EtOH, 35% PEG400 and 30% D5W. The tested compound was also administered to male Sprague-Dawley rats at single nominal oral dose of 3 mg/kg as a solution in 5% NMP, 30% PEG400, 10% TPGS, 5% PVP-K30 at 5 mL/kg dose volume. Analyses of plasma and dose preparations were performed using LC/MS/MS.
Plasma concentration-time profiles of the tested compound in Sprague-Dawley rats at scheduled (nominal) sampling times were analyzed by noncompartmental pharmacokinetic methods using PK function within Watson LIMS software, Version 7.4.2 (Thermo Scientific Inc, Waltham, Mass.). AUC values were calculated using the linear trapezoidal rule.

F508del-CFTR [3] = target: T1, F508del-CFTR; experiment: Ussing chamber chloride transport in HBE cells; type: cell-based; parameters: CF-HBE were isolated from patients homozygous for F508del; endogenous in cells; host or cells: primary human bronchial epithelial (HBE) cells, F508del/F508del
Protocol: Ussing chamber experiments were performed on polarized airway epithelial cells expressing F508del to further characterize the F508del modulators identified in the optical assays. Non-CF and CF airway epithelia were isolated from bronchial tissue, cultured as previously described (Galietta, L. J. V., Lantero, S., Gazzolo, A., Sacco, O., Romano, L., Rossi, G. A., & Zegarra-Moran, O. (1998) In Vitro Cell Dev. Biol. 34, 478-481), and plated onto Costar® Snapwell™ filters that were precoated with NIH3T3-conditioned media. After four days the apical media was removed and the cells were grown at an air liquid interface for >14 days prior to use.
HBE grown on Costar® Snnapwell™ cell culture inserts were mounted in an Ussing chamber (Physiologic Instruments, Inc., San Diego, Calif.), and the transepithelial resistance and short-circuit current in the presence of a basolateral to apical […] gradient (ISC) were measured using a voltage-clamp system (Department of Bioengineering, University of Iowa, Iowa). Briefly, HBE were examined under voltage-clamp recording conditions (Vhold=0 mV) at 37° C. The basolateral solution contained (in mM) 145 NaCl, 0.83 K2HPO4, 3.3 KH2PO4, 1.2 MgCl2, 1.2 CaCl2, 10 Glucose, 10 HEPES (pH adjusted to 7.35 with NaOH) and the apical solution contained (in mM) 145 NaGluconate, 1.2 MgCl2, 1.2 CaCl2, 10 glucose, 10 HEPES (pH adjusted to 7.35 with NaOH).
5A-A2. […]

F508del-CFTR [4] = target: T1, F508del-CFTR; experiment: F508del-CFTR processing and trafficking in vitro (170 to 180 kDa band); type: cell-based; parameters: CF-HBE were isolated from patients homozygous for F508del; endogenous in cells; host or cells: primary human bronchial epithelial (HBE) cells, F508del/F508del
Protocol: The CFTR protein delivered to the cell surface by Compound 1 alone or in combination with Compound II (Compound 1/Compound II) was potentiated by Compound III.
Incubation of F508del/F508del-HBE cells for 16 to 24 hours with 1 μM Compound 1 alone or in combination with […].

[5] = Table 6, F508del NIH 3T3 cells, assay of Example 5A-A1

T1 sequence (P13569 with tags, fused parts or gaps DEL508-508): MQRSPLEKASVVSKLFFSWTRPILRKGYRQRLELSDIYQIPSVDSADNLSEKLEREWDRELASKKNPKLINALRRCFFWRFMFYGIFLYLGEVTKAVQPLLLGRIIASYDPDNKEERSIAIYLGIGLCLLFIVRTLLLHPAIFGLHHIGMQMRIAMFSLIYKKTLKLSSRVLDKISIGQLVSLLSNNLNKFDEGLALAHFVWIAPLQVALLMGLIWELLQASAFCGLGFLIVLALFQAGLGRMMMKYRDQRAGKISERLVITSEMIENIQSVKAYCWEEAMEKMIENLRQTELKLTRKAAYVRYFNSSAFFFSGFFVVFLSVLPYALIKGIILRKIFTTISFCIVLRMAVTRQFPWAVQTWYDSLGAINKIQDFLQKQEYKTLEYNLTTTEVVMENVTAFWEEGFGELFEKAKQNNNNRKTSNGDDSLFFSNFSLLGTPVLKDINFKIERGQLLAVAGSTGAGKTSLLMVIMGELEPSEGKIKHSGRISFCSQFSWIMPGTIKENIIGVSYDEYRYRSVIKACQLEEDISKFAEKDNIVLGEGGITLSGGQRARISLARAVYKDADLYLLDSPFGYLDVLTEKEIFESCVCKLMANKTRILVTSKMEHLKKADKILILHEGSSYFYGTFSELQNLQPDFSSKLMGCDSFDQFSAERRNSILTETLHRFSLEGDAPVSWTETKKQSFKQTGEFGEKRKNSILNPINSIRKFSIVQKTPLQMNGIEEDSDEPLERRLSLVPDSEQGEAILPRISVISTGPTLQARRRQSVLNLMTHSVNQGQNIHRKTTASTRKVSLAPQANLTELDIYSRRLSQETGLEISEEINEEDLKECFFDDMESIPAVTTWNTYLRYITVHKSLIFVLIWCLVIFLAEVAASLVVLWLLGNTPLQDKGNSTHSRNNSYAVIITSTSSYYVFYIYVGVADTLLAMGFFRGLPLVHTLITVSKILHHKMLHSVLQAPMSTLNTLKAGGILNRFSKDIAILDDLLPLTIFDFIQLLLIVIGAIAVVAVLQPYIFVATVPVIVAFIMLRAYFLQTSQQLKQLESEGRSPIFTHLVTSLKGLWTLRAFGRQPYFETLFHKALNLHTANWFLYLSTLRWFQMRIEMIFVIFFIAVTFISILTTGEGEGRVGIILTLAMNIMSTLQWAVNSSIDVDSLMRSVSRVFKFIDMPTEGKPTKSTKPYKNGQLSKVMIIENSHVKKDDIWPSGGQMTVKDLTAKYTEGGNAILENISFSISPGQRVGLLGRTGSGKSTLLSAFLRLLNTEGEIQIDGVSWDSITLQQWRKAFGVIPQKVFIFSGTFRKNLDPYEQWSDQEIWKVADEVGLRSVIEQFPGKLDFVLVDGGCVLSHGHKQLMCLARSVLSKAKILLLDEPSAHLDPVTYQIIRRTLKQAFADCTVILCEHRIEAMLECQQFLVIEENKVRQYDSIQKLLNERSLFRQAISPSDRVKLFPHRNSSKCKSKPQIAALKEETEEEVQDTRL
T2 sequence (P02768 25-609): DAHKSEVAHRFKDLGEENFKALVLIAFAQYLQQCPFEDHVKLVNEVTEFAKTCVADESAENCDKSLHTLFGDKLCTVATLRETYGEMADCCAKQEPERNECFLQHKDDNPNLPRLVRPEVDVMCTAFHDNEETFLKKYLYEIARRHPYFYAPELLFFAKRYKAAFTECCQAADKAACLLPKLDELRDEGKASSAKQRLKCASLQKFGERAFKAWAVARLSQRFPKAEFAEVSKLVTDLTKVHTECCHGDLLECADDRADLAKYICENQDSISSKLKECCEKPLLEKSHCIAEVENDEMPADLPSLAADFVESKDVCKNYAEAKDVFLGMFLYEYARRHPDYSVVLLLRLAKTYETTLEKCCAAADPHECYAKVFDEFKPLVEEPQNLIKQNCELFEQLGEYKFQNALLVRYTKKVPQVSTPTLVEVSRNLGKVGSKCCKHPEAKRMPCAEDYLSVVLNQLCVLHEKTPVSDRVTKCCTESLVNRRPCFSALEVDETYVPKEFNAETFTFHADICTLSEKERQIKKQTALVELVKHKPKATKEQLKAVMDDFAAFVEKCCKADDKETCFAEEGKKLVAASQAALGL

Compound: CC1CC(C)(C)N2c3nc(-n4ccc(OCCC5(C(F)(F)F)CC5)n4)ccc3C(=O)OC12 (stereo not shown)
pEC50 (F508del-CFTR [1]; Table 7, Compound 1 and its metabolites): < 4.52

Compound: C[C@@H]1CN(c2nc(-n3ccc(OCC4(C(F)(F)F)CC4)n3)ccc2C(=O)NS(=N)(=O)c2ccccc2)C(C)(C)C1 (mixture of isomers)
HSA binding [2]: 98.%

Compound: C[C@@H]1CN(c2nc(-n3ccc(OCC(C)(C)C)n3)ccc2C(=O)NS(=O)(=O)c2cccnc2N)C(C)(C)C1 [Comp. A, reference compound]
Rat po % F (Rat IV and PO PK studies): 28%

Compound: C[C@@H]1CN(c2nc(-n3ccc(OCCC4(C(F)(F)F)CC4)n3)ccc2C(=O)NS(=O)(=O)c2cccc(F)c2)C(C)(C)C1 [Compound 5]
Rat po % F (Rat IV and PO PK studies): 50%

Compound: C[C@@H]1CN(c2nc(-n3ccc(OCC4(C(F)(F)F)CC4)n3)ccc2C(=O)NS(=O)(=O)c2ccccc2C#N)C(C)(C)C1 [Compound 26, N-(2-Cyanophenyl)sulfonyl-6-[3-[[1-(trifluoromethyl)cyclopropyl]methoxy]pyrazol-1-yl]-2-[(4S)-2,2,4-trimethylpyrrolidin-1-yl]pyridine-3-carboxamide]
pEC50 (F508del-CFTR [1]; [5]): > 7.00

Compound: C[C@@H]1CN(c2nc(-n3ccc(OCC4(C(F)(F)F)CC4)n3)ccc2C(=O)NS(=O)(=O)c2ccc(F)cc2)C(C)(C)C1 [Compound 52, N-(4-fluorophenyl)sulfonyl-6-[3-[[1-(trifluoromethyl)cyclopropyl]methoxy]pyrazol-1-yl]-2-[(4S)-2,2,4-trimethylpyrrolidin-1-yl]pyridine-3-carboxamide]
pEC50 (F508del-CFTR [1]; [5]): 6.00 to 7.00

Compound: CC(C)(C)c1cc(C(C)(C)C)c(NC(=O)c2c[nH]c3ccccc3c2=O)cc1O [Compound III, N-(5-hydroxy-2,4-di-tert-butyl-phenyl)-4-oxo-1H-quinoline-3-carboxamide, reference compound]
potentiation of F508del-CFTR delivered to the cell surface (F508del-CFTR [3]; CFTR delivered by Compound 1 alone or in combination with Compound II): potentiated

Continued, in another order:

Rat po % F (Rat IV and PO PK studies): 63% | steady-state levels, fold of untreated levels (F508del-CFTR [4]; F508del/F508del-HBE cells, 16 to 24 hours, 1 μM Compound 1 alone): 6.5 fold | processing and trafficking of F508del-CFTR (F508del-CFTR [4]; in vitro): CFTR corrector
Compound: C[C@@H]1CN(c2nc(-n3ccc(OCCC4(C(F)(F)F)CC4)n3)ccc2C(=O)NS(=O)(=O)c2ccccc2)C(C)(C)C1 [Compound 1, N-(benzenesulfonyl)-6-[3-[2-[1-(trifluoromethyl)cyclopropyl]ethoxy]pyrazol-1-yl]-2-[(4S)-2,2,4-trimethylpyrrolidin-1-yl]pyridine-3-carboxamide]
chloride transport (F508del-CFTR [3]; Ussing Chamber, F508del/F508del-HBE cells, listed as Compound I): enhanced chloride transport; also recorded: additive to the effect of Compound II

Rat po % F (Rat IV and PO PK studies): 41%
Compound: C[C@@H]1CN(c2nc(-n3ccc(OCC4(C(F)(F)F)CCC4)n3)ccc2C(=O)NS(=O)(=O)c2ccccc2)C(C)(C)C1 [Compound 10, N-(Benzenesulfonyl)-6-[3-[[1-(trifluoromethyl)cyclobutyl]methoxy]pyrazol-1-yl]-2-[(4S)-2,2,4-trimethylpyrrolidin-1-yl]pyridine-3-carboxamide]

Rat po % F (Rat IV and PO PK studies): 58%
Compound: C[C@@H]1CN(c2nc(-n3ccc(OCC4(C(F)(F)F)CC4)n3)ccc2C(=O)NS(=O)(=O)c2ccccc2)C(C)(C)C1 [Compound 14, N-(Benzeuesulfonyl)-6-[3-[[1-(trifluoromethyl)cyclopropyl]methoxy]pyrazol-1-yl]-2-[(4S)-2,2,4-trimethylpyrrolidin-1-yl]pyridine-3-carboxamide]

From patent publication US20220306606A1, “MODULATOR OF CYSTIC FIBROSIS TRANSMEMBRANE CONDUCTANCE REGULATOR, PHARMACEUTICAL COMPOSITIONS, METHODS OF TREATMENT, AND PROCESS FOR MAKING THE MODULATOR” (Vertex Pharmaceuticals Incorporated, priority 2016, published 2022)
